Key:
[1] = target: hERG (KV11.1) (Homo sapiens, UniProt Q12809); experiment: Automated planar patch-clamp (APC, QPatch II 48), voltage-ladder protocol, CHO cells stably expressing human hERG
[2] = target: T1, hERG S624A (Homo sapiens, UniProt Q12809, S624A); experiment: Manual patch-clamp (MPC) on hERG S624A, transiently transfected CHO-K1 cells; assay type: cell-based
T1 construct: expressed in transfected cells; host or cells: CHO-K1 CCL-61 (ATCC), transient, co-transfected with pcDNA3-GFP
Description: (§1) The hERG wild-type and Y652A constructs were kindly provided by Dr. Nicole Schmitt, and the eGFP-pcDNA3 construct was kindly provided by Dr. Antonios Pantazis. The S624A and S649A constructs were generated in-house from the wild-type template using the QuikChange II XL Site-Directed Mutagenesis Kit (Agilent Technologies, Santa Clara, CA, USA), in accordance with the manufacturer’s instructions. Mutagenesis primers were designed using the Agilent QuikChange Primer Design Program. Briefly, PCR amplification was performed according to the recommended cycling conditions, followed by DpnI digestion for 1 h to selectively degrade the parental (methylated) DNA template. The reaction products were then transformed into XL10-Gold ultracompetent cells. All constructs were verified by whole-plasmid sequencing (Eurofins Genomics, Germany) to confirm sequence accuracy.
(§2) Manual patch-clamp (MPC) recordings were performed 24–48 h post-transfection. Patch pipettes were pulled from borosilicate glass and had resistances of 4–7 MΩ when filled with intracellular solution. Coverslips with CHO-K1 cells were placed in a recording chamber and continuously perfused at room temperature (22–24 °C) with extracellular solution using a gravity-fed perfusion system. […] Compounds were applied to the recorded cells by a pressurized, automated OctaFlow perfusion system (ALA Scientific Instruments). […]

[3] = target: T2, hERG Y652A (Homo sapiens, UniProt Q12809, Y652A); experiment: Manual patch-clamp (MPC) on hERG Y652A, transiently transfected CHO-K1 cells; assay type: cell-based
T2 construct: expressed in transfected cells; host or cells: CHO-K1 CCL-61 (ATCC), transient, co-transfected with pcDNA3-GFP
T2 sequence (Q12809 whole entry Y652A): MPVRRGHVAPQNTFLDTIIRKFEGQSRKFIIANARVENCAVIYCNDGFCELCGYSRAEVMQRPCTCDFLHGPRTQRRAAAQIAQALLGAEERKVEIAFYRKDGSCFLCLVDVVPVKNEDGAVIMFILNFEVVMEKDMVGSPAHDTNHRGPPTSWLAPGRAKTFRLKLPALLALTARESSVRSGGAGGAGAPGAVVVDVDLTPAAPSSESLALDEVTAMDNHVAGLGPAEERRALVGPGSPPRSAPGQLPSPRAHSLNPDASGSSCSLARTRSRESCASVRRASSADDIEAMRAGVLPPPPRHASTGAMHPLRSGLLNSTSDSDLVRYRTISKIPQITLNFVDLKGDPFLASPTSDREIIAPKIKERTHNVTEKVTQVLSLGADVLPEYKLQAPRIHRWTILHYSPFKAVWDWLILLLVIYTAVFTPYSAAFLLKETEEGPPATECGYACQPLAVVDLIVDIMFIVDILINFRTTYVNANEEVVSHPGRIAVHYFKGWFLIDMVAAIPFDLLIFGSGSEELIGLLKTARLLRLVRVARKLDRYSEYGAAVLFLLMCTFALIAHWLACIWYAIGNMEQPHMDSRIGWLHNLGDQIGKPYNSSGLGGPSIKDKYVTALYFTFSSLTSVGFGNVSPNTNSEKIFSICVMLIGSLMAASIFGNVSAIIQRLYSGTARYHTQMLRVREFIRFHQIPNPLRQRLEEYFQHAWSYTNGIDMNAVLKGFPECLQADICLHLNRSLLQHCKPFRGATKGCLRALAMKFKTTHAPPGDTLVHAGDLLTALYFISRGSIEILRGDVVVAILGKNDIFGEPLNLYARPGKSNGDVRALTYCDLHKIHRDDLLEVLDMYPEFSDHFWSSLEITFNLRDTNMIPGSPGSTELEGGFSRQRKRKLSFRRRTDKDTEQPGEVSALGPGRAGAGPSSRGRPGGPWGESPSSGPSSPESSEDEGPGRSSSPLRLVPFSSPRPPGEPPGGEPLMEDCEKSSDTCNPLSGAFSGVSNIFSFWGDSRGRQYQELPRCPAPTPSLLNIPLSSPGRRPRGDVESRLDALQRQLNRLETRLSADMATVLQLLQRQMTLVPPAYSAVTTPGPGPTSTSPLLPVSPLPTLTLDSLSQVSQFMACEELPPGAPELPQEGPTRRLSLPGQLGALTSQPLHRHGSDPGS
Description: as §1, §2

Chain of hERG (KV11.1) (Q12809 whole entry): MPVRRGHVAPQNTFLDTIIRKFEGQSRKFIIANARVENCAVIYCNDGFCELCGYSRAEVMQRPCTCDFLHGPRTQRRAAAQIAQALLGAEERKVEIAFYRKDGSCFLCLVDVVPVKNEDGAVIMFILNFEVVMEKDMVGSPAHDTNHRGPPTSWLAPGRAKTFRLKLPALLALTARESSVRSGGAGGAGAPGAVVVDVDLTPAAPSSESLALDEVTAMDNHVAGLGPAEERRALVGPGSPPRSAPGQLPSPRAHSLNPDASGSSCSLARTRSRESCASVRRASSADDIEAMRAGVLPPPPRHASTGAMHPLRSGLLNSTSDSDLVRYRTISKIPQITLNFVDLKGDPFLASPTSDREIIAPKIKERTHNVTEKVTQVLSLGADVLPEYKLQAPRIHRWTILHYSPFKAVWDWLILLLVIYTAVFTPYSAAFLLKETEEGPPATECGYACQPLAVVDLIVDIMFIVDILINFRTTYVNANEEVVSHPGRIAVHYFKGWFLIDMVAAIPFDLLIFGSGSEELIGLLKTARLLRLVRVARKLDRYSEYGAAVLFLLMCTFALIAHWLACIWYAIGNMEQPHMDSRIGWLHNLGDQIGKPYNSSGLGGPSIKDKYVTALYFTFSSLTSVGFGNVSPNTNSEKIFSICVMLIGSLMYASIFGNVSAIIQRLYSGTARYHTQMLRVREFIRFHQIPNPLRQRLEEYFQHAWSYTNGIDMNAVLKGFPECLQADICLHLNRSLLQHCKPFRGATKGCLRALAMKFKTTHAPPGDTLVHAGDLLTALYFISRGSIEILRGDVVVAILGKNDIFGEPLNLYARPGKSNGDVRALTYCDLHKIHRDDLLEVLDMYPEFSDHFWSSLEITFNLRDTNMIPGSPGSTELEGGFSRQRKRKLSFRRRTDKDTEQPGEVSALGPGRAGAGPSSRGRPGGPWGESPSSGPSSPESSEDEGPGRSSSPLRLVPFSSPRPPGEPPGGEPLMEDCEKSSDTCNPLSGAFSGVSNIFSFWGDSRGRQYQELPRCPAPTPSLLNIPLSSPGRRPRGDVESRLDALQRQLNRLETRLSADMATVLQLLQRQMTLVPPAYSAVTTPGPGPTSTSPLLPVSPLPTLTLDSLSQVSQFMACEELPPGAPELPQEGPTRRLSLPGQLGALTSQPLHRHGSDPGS
T1 sequence (Q12809 whole entry S624A): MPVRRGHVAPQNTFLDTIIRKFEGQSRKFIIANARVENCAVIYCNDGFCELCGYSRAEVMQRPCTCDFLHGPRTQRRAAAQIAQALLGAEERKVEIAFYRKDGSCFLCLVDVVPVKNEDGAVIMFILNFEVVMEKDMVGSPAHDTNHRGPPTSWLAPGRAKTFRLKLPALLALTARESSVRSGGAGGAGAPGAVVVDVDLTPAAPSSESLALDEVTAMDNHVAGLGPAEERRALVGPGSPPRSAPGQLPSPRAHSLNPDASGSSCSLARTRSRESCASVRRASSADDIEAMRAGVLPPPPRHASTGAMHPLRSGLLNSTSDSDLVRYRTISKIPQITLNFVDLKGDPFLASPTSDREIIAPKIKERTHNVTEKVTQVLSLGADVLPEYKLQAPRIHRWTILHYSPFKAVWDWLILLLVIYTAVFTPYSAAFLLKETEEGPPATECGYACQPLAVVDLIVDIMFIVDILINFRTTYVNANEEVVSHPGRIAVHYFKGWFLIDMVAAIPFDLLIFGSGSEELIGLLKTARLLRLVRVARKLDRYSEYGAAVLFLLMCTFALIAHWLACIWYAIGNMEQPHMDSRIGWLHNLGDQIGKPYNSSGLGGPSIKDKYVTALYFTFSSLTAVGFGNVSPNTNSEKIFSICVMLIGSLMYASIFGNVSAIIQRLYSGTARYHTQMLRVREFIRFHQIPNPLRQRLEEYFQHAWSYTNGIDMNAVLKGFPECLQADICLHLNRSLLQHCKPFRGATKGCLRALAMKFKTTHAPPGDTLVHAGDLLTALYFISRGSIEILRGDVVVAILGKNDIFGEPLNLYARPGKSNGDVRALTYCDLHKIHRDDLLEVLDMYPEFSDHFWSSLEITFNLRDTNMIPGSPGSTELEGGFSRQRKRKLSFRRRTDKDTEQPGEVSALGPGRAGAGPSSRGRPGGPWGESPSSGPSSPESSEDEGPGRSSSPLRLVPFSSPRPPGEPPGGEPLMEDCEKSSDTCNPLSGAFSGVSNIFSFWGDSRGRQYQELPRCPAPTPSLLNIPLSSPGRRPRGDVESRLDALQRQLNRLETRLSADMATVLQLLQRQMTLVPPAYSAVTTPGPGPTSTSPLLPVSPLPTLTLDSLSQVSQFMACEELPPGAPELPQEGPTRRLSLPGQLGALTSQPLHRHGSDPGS

With `COC(=O)C(NC(=O)c1nn(CCCCCF)c2ccccc12)C(C)(C)C` (centres unmarked) [5F-MDMB-PINACA, methyl 2-{[1-(5-fluoropentyl)-1H-indazole-3-carbonyl]amino}-3,3-dimethylbutanoate] the IC50 [1] was 9 µM, the “effect on Gmax of hERG (in words)” value ([1]; APC concentration-response, 1.11 to 30 µM) was “one of the most prominent in reducing Gmax of hERG” and the “hERG channel Efficacy (max reduction in Gmax) Gmin” value ([1]; best fit, 1 = no reduction of Gmax, 0 = complete reduction, APC, 22 °C) was 0.00. For the same compound, the IC50 [2] was 9.6 µM and the IC50 [3] was 7.8 µM.

Source: paper PMC13586173, “Synthetic cannabinoid receptor agonists inhibit the cardiac voltage-gated potassium channel hERG” (Acta Pharmacologica Sinica, 2026)
